US10829538B2, “Identification of immunogenic MHC class II peptides for immune-based therapy” (THE TRUSTEES OF THE UNIVERSITY OF PENNSYLVANIA, priority 2015, dated 2020)

Experiments:
HLA-DR, DP, DQ = experiment: MHC class II promiscuity of CD4+ Th1 responses (HLA-DR, DP, DQ typing of donors); assay type: cell-based, human; conditions: DQ subtypes
[1] = tested on: HER3 ECD-sensitized CD4+ Th1 cells; experiment: Sequential screening of HER3 ECD peptide library: HER3 ECD-sensitized CD4+ Th1 restimulated against peptide-pulsed iDCs, IFN-γ ELISA; assay type: cell-based, human; conditions: for reactivity of CD4+ T cells across donors (IFN-γ secretion): 5-6 subjects with known anti-HER3 ECD reactivity
[2] = Donor # 15107-26, previously sensitized to HER3 ECD
[3] = Donor # 15107-31, previously sensitized to HER3 ECD
[4] = Donor # 15107-38, previously sensitized to HER3 ECD
[5] = Donor # 26113-03, previously sensitized to HER3 ECD
[6] = Donor # 15107-24, previously sensitized to HER3 ECD

**Q.** How did the “MHC class II promiscuity” value (HLA-DR, DP, DQ) turn out when “AGRIYISANRQLCYH [HER3451-465, HER3 ECD MHC class II immunogenic peptide, positions 451-465]” was run?
**A.** promiscuous across HLA-DR, DP, and DQ subtypes

**Q.** And the “reactivity of CD4+ T cells across donors (IFN-γ secretion)” value (“reactivity of CD4+ T cells across donors” for short) [1]?
**A.** react across most donors

**Q.** What about the “reactivity of CD4+ T cells across donors” value ([1]; listed as HER3(451-465)) of the same sequence?
**A.** reproducibly identified

**Q.** What about the “immunogenic CD4+ HER3 ECD peptide identified” value [1, 2] of the same sequence?
**A.** ✓

**Q.** And the “immunogenic CD4+ HER3 ECD peptide identified” value [1, 3]?
**A.** ✓

**Q.** And the “immunogenic CD4+ HER3 ECD peptide identified” value [1, 4]?
**A.** ✓

**Q.** What about the “immunogenic CD4+ HER3 ECD peptide identified” value [1, 5] of the same sequence?
**A.** ✓

**Q.** “CEVVMGNLEIVLTGH [HER356-70, HER3 ECD MHC class II immunogenic peptide, positions 56-70]” was tested. Which “MHC class II promiscuity” value (HLA-DR, DP, DQ) did it give?
**A.** promiscuous across HLA-DR, DP, and DQ subtypes

**Q.** And the “reactivity of CD4+ T cells across donors” value [1]?
**A.** react across most donors

**Q.** What about the “reactivity of CD4+ T cells across donors” value ([1]; listed as HER3(56-70)) of the same sequence?
**A.** reproducibly identified

**Q.** What about the “immunogenic CD4+ HER3 ECD peptide identified” value [1, 6] of the same sequence?
**A.** ✓

**Q.** And the “immunogenic CD4+ HER3 ECD peptide identified” value [1, 2]?
**A.** ✓

**Q.** And the “immunogenic CD4+ HER3 ECD peptide identified” value [1, 4]?
**A.** ✓

**Q.** And the “immunogenic CD4+ HER3 ECD peptide identified” value [1, 5]?
**A.** ✓

**Q.** What does the source list for “SWPPHMHNFSVFSNL [HER3401-415, HER3 ECD MHC class II immunogenic peptide, positions 401-415]”?
**A.** MHC class II promiscuity (HLA-DR, DP, DQ): promiscuous across HLA-DR, DP, and DQ subtypes; reactivity of CD4+ T cells across donors (IFN-γ secretion) [1]: react across most donors; reactivity of CD4+ T cells across donors (IFN-γ secretion) ([1]; listed as HER3(401-415)): reproducibly identified; immunogenic CD4+ HER3 ECD peptide identified [1, 6]: ✓; immunogenic CD4+ HER3 ECD peptide identified [1, 2]: ✓; immunogenic CD4+ HER3 ECD peptide identified [1, 5]: ✓

**Q.** How did the “MHC class II promiscuity” value (HLA-DR, DP, DQ) turn out when “TTIGGRSLYNRGFSL [HER3416-430, HER3 ECD MHC class II immunogenic peptide, positions 416-430]” was run?
**A.** promiscuous across HLA-DR, DP, and DQ subtypes

**Q.** And the “reactivity of CD4+ T cells across donors” value [1]?
**A.** react across most donors

**Q.** And the “reactivity of CD4+ T cells across donors” value ([1]; listed as HER3(416-430))?
**A.** reproducibly identified

**Q.** And the “immunogenic CD4+ HER3 ECD peptide identified” value [1, 6]?
**A.** ✓

**Q.** What about the “immunogenic CD4+ HER3 ECD peptide identified” value [1, 2] of the same sequence?
**A.** ✓

**Q.** And the “immunogenic CD4+ HER3 ECD peptide identified” value [1, 3]?
**A.** ✓

**Q.** What about the “immunogenic CD4+ HER3 ECD peptide identified” value [1, 5] of the same sequence?
**A.** ✓
